The values below are quoted from earlier work in patent US4760029A, “Assay for D-1 antagonistic activity of neuroleptic drugs” (Schering Corporation, priority 1984, dated 1988).

Series [1] concerns dopamine stimulated adenylate cyclase. Conditions: J. Pharmacol. Exp. Ther., 226, 462 (1983).
The test system of the next series is D-1 sites. The following applies: Eur. J. Pharmacol. 91, 153(1983).
The conditions of series [2]: J. Pharmacol. Exp. Ther., 226, 462 (1983).
Another series relates to D-2 sites. The following applies: J. Pharmacol. Exp. Ther., 226, 462 (1983).

For `CN1CCc2cc(Cl)c(O)cc2[C@@H](c2ccccc2)C1` [Compound, R-(+)-8-chloro-2,3,4,5-tetrahydro-3-methyl-5-phenyl-1H-3-benzazepin-7-ol], the “blockade of dopamine stimulated adenylate cyclase” value in series [1] is on record as “potent blockade”. In the series on D-1 sites, the “ability to inhibit ^3 H-cis-(Z)-piflutixol binding” value is given as “very potent”. Besides, the prolactinemia entry in series [2] was “no prolactinemia”. The “displacement of ^3 H-spiperone binding” value in the series with D-2 sites is recorded as “weak displacement”.
